Tests used:
[1] = biological target: T1, human mGlu5 receptor (CHO T-REx h-mGluR5 cells) (Homo sapiens (Human), UniProt P41594); assay: Radioligand binding assay at cloned mGluR5 ([3H]MPEP displacement); settings: 4 nM [3H]MPEP, read-out: h.c. mglu R5 IC50
From the text: (§1) Cell lines stably transfected were generated using inducible expression vectors encoding human mGlu5 receptor using the Tetracycline-Regulated Expression system (T-REx™ system, Invitrogen, Life Technologies). Human mGluR5 open reading frame (ORF), comprehensive of the stop codon, were cloned into the pcDNA4/TO/myc-His™ A vector, carrying the TetO2 sequences. The insertion site was HindIII-PstI for mGluR5 receptors. The obtained constructs were then transfected into the T-REx CHO™ cell line using the FuGENE protocol (Roche); the CHO T-REx™ cell line stably expresses the Tet repressor (from the pcDNA6/TR plasmid) under the selection of blasticidin, 10 μg/ml. Stable clones were obtained selecting with zeocine 1 mg/ml and maintaining in ULTRA CHO medium (LONZA) supplemented with dialyzed FBS, zeocin, blasticidine, at 37° C., in an atmosphere of 5% CO2. The expression of h-mGluR5 receptors was de-repressed with 1 μg/ml tetracycline for 18 h before binding experimentation, while the expression of h-mGluR5 receptors was de-repressed respectively with 3 ng/ml and 10 ng/ml tetracycline for 18 h before calcium fluorescence experimentation.
Affinity at transmembrane glutamate metabotropic mGluR5 receptor subtypes was evaluated according to the methods of Anderson (Anderson et al., J Pharmacol. Exp. Ther., (2002), Vol. 303(3), pp. 1044-51), with some modifications. Cloned mGluR5 was obtained by re-suspending CHO T-REx h-mGluR5 cells (50 μg/well) in 20 mM HEPES, 2 mM MgCl2, 2 mM CaCl2, pH 7.4, that then were incubated in a final volume of 1 ml for 60 min at 25° C. with 4 nM [^3H]MPEP in the absence or presence of competing drugs. Non-specific binding was determined in the presence of […] MPEP. The incubation was stopped by addition of cold Tris buffer pH 7.4 and rapid filtration through 0.2% polyethyleneimine pretreated Filtermat 1204-401 (Perkin Elmer) filters. The filters were then washed with cold buffer and the radioactivity retained on the filters was counted by liquid scintillation spectrometry (Betaplate 1204 BS-Wallac).
(§2) The antagonist potency was determined using the EC80 of the quisqualate used as agonist and the potentiation of mGlu5 activation was determined using the EC20 of the agonist (quisqualate or glutamate). The compounds were applied 10 minutes before the application of the agonist. For binding and calcium assay studies, the compounds were dissolved in DMSO or demineralized water according to their solubility. All the reported doses were those of the corresponding salts or bases.
The inhibition curves of the tested compounds at native and cloned mGluR1 and mGluR5 subtypes were determined by nonlinear regression analysis using software Prism 4.0 (Graphpad, San Diego, Calif.). The IC50 values and pseudo-Hill slope coefficients were estimated by the program. The values for the inhibition constant, Ki, were calculated according to the equation Ki=IC50/(1+[L]/Kd), where [L] is the concentration of radioligand and Kd is the equilibrium dissociation constant of the radioligand-receptor complex (Cheng et al., Biochem. Pharmacol. (1973), Vol. 22, pp. 3099-3108).

[2] = biological target: T1, human mGlu5 receptor (CHO T-REx h-mGluR5 cells); assay: Calcium fluorescence measurement, potentiation of mGlu5 activation at EC20 of quisqualate; assay type: cell-based
From the text: as §1
(§3) Cells were seeded into black-walled, clear-bottom, 96-well plates at a density of 80000 cell/well, in RPMI (without Phenol Red, without L-glutamine; Gibco LifeTechnologies, CA) supplemented with 10% dialyzed FBS. Following 18-h incubation with tetracycline, the cells were loaded with […] Ca^2+—sensitive fluorescent dye Fluo-4/AM (Molecular Probes) in Hanks' balanced saline solution (HBSS, Gibco LifeTechnologies, CA) with 20 mM Hepes (Sigma) and 2.5 mM probenecid (Sigma), for 1 h at 37° C. The cells were washed three times with HBSS to remove extracellular dye. Fluorescence signals were measured by using the fluorescence microplate reader Flexstation III (Molecular Devices) at sampling intervals of 1.5 s for 60 s.
as §2

[3] = biological target: T1, human mGlu5 receptor (CHO T-REx h-mGluR5 cells); assay: Calcium fluorescence measurement, potentiation of mGlu5 activation at EC20 of glutamate; assay type: cell-based; settings: for Fold Increase 1 microM Glutam. / Fold Increase Glutam.: agonist glutamate; for EC50: potentiation, agonist glutamate at EC20, read-out: EC50 nM Glutam.
From the text: as §1, §3, §2

T1 sequence (P41594 21-1212): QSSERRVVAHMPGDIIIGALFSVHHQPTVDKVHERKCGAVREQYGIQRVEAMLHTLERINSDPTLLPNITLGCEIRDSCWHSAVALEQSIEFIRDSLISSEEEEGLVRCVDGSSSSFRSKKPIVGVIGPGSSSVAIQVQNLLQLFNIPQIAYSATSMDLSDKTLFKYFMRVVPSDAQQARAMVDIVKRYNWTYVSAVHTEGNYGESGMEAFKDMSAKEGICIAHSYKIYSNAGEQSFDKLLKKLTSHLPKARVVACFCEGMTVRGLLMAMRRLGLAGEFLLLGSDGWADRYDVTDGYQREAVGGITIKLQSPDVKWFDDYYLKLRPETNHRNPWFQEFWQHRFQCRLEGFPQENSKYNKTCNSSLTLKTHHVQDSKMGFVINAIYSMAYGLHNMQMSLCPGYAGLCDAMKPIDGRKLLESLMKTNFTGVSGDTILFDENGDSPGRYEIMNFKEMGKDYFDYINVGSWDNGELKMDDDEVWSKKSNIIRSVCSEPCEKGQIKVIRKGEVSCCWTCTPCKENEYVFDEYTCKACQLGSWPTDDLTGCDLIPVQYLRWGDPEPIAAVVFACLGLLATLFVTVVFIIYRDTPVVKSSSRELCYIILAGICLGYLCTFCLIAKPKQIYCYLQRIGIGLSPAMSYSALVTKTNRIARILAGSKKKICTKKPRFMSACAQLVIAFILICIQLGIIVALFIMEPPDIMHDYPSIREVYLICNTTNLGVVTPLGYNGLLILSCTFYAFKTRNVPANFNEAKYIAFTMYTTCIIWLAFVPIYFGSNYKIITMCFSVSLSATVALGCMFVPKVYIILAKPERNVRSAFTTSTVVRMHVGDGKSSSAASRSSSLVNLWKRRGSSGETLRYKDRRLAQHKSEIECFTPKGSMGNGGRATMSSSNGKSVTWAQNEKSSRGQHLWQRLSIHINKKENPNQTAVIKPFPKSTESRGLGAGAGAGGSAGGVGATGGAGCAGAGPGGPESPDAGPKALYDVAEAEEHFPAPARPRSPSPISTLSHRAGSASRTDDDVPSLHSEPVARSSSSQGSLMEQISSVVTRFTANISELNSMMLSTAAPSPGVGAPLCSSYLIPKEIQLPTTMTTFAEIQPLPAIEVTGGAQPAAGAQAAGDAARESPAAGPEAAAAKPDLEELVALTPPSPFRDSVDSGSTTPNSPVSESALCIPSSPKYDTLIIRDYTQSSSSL

SMILES: CCN(C(=O)N1CCC2C(C#Cc3cccc(Cl)c3)=NOC21)C(C)C (stereo not shown) [Example 4, 3-[2-(3-chlorophenyl)ethynyl]-N-ethyl-N-isopropyl-3a,4,5,6a-tetrahydropyrrolo[3,2-d]isoxazole-6-carboxamide]
- IC50 [1]: 6.99 nM

SMILES: Cc1cccc(C#CC2=NOC3C2CCN3C(=O)OC(C)(C)C)n1 (stereo not shown) [Example 5, tert-butyl 3-[2-(6-methyl-2-pyridyl)ethynyl]-3a,4,5,6a-tetrahydropyrrolo[3,2-d]isoxazole-6-carboxylate]
- Fold Inc. Quisq. ([2]; agonist quisqualate): 0 fold
- IC50 [1]: 708 nM

SMILES: O=C(N1CCOCC1)N1CCC2C(C#Cc3cccc(Cl)c3)=NOC21 (stereo not shown) [Example 6, [3-[2-(3-chlorophenyl)ethynyl]-3a,4,5,6a-tetrahydropyrrolo[3,2-d]isoxazol-6-yl]-morpholino-methanone]
- Fold Shift 1 microM Quisq. ([2]; 1 microM, agonist quisqualate): 2.7 fold
- Fold Inc. Quisq. ([2]; agonist quisqualate): 3.3 fold
- EC50 ([2]; potentiation, agonist quisqualate at EC20, read-out: EC50 nM Quisq.): 132 nM
- Fold Increase 1 microM Glutam. [3]: 3.24 fold
- Fold Increase Glutam. [3]: 5.1 fold
- EC50 [3]: 95.2 nM
- IC50 [1]: 24.8 nM

SMILES: Cc1cccc(C#CC2=NOC3C2CCN3C(=O)N2CCCCC2)c1 (stereo not shown) [Example 12, [3-[2-(m-tolyl)ethynyl]-3a,4,5,6a-tetrahydropyrrolo[3,2-d]isoxazol-6-yl]-(1-piperidyl)methanone]
- IC50 [1]: 10.6 nM

SMILES: CCOC(=O)N1CCC2C(C#Cc3cccc(C)c3)=NOC21 (stereo not shown) [Example 16, ethyl 3-[2-(m-tolyl)ethynyl]-3a,4,5,6a-tetrahydropyrrolo[3,2-d]isoxazole-6-carboxylate]
- IC50 [1]: 152 nM

SMILES: Cc1cccc(C#CC2=NOC3C2CCN3C(=O)N2CCCCC2)n1 (stereo not shown) [Example 17, [3-[2-(6-methyl-2-pyridyl)ethynyl]-3a,4,5,6a-tetrahydropyrrolo[3,2-d]isoxazol-6-yl]-(1-piperidyl)methanone]
- Fold Inc. Quisq. ([2]; agonist quisqualate): 1.27 fold
- IC50 [1]: > 1000 nM

SMILES: Cc1cccc(C#CC2=NOC3C2CCN3C(=O)N2CCOCC2)n1 (stereo not shown) [Example 18, [3-[2-(6-methyl-2-pyridyl)ethynyl]-3a,4,5,6a-tetrahydropyrrolo[3,2-d]isoxazol-6-yl]-morpholino-methanone]
- IC50 [1]: > 1000 nM

SMILES: CON(C)C(=O)N1CCC2C(C#Cc3cccc(C)n3)=NOC21 (stereo not shown) [Example 19, N-methoxy-N-methyl-3-[2-(6-methyl-2-pyridyl)ethynyl]-3a,4,5,6a-tetrahydropyrrolo[3,2-d]isoxazole-6-carboxamide]
- IC50 [1]: 239 nM

SMILES: CCOC(=O)N1CCC2C(C#Cc3cccc(C)n3)=NOC21 (stereo not shown) [Example 20, ethyl 3-[2-(6-methyl-2-pyridyl)ethynyl]-3a,4,5,6a-tetrahydropyrrolo[3,2-d]isoxazole-6-carboxylate]
- Fold Inc. Quisq. ([2]; agonist quisqualate): 0 fold
- IC50 [1]: > 1000 nM

SMILES: CC(C)OC(=O)N1CCC2C(C#Cc3cccc(Cl)c3)=NOC21 (stereo not shown) [Example 21, isopropyl-3-(3-chlorophenylethynyl)-3a,4,5,6a-tetrahydropyrrolo[3,2-d]isoxazole-6-carboxylate]
- Fold Increase Glutam. [3]: 0 fold

SMILES: O=C(OCC1CC1)N1CCC2C(C#Cc3cccc(Cl)c3)=NOC21 (stereo not shown) [Example 22, cyclopropylmethyl-3-(3-chlorophenylethynyl)-3a,4,5,6a-tetrahydropyrrolo[3,2-d]isoxazole-6-carboxylate]
- Fold Increase 1 microM Glutam. [3]: 3.11 fold
- Fold Increase Glutam. [3]: 4.7 fold
- EC50 [3]: 777 nM

SMILES: O=C(OC1CCCC1)N1CCC2C(C#Cc3cccc(Cl)c3)=NOC21 (stereo not shown) [Example 23, cyclopentyl-3-(3-chlorophenylethynyl)-3a,4,5,6a-tetrahydropyrrolo[3,2-d]isoxazole-6-carboxylate]
- EC50 [3]: 144 nM

SMILES: CC(C)(C)COC(=O)N1CCC2C(C#Cc3cccc(Cl)c3)=NOC21 (stereo not shown) [Example 24, 2,2-dimethylpropyl-3-(3-chlorophenylethynyl)-3a,4,5,6a-tetrahydropvrrolo[3,2-d]isoxazole-6-carboxylate]
- Fold Increase 1 microM Glutam. [3]: 8.48 fold
- Fold Increase Glutam. [3]: 5.8 fold
- EC50 [3]: 33.9 nM

SMILES: CC(C)NC(=O)N1CCC2C(C#Cc3cccc(Cl)c3)=NOC21 (stereo not shown) [Example 25, 3-(3-chlorophenylethynyl)-N-(propan-2-yl)-3a,4,5,6a-tetrahydropyrrolo[3,2-d]isoxazole-6-carboxamide]
- Fold Increase Glutam. [3]: 0 fold

SMILES: CC(C)(C)NC(=O)N1CCC2C(C#Cc3cccc(Cl)c3)=NOC21 (stereo not shown) [Example 26, N-t-butyl-3-(3-chlorophenylethynyl)-3a,4,5,6a-tetrahydropyrrolo[3,2-d]isoxazole-6-carboxamide]
- Fold Increase 1 microM Glutam. [3]: 2.65 fold
- Fold Increase Glutam. [3]: 5.09 fold
- EC50 [3]: 54.6 nM

SMILES: O=C(NC1CCCC1)N1CCC2C(C#Cc3cccc(Cl)c3)=NOC21 (stereo not shown) [Example 27, 3-(3-chlorophenylethynyl)-N-cyclopentyl-3a,4,5,6a-tetrahydropyrrolo[3,2-d]isoxazole-6-carboxamide]
- Fold Increase 1 microM Glutam. [3]: 4.08 fold
- Fold Increase Glutam. [3]: 5.11 fold
- EC50 [3]: 96.9 nM

SMILES: O=C(c1ccoc1)N1CCC2C(C#Cc3cccc(Cl)c3)=NOC21 (stereo not shown) [Example 28]
- Fold Increase Glutam. [3]: 0 fold

SMILES: Cc1ccc(C(=O)N2CCC3C(C#Cc4cccc(Cl)c4)=NOC32)o1 (stereo not shown) [Example 29, 3-(3-chlorophenylethynyl)-3a,4,5,6a-tetrahydropyrrolo[3,2-d]isoxazol-6-yl-(5-methylfuran-2-yl)methanone]
- Fold Increase Glutam. [3]: 0 fold

SMILES: O=C(C1CCCC1)N1CCC2C(C#Cc3cccc(Cl)c3)=NOC21 (stereo not shown) [Example 30, 3-(3-chlorophenylethynyl)-3a,4,5,6a-tetrahydropyrrolo[3,2-d]isoxazol-6-yl-(cyclopentyl)methanone]
- Fold Increase 1 microM Glutam. [3]: 3.95 fold
- Fold Increase Glutam. [3]: 3.69 fold
- EC50 [3]: 108 nM

SMILES: O=C(C1CCOCC1)N1CCC2C(C#Cc3cccc(Cl)c3)=NOC21 (stereo not shown) [Example 31, 3-(3-chlorophenylethynyl)-3a,4,5,6a-tetrahydropyrro[3,5,6a-tetrahdrorrolo3,2-d]oxazol-6-yl-(oxan-4-yl)methanone]
- Fold Increase 1 microM Glutam. [3]: 2.14 fold
- Fold Increase Glutam. [3]: 5.29 fold
- EC50 [3]: 301 nM

SMILES: CN1CCN(C(=O)N2CCC3C(C#Cc4cccc(Cl)c4)=NOC32)CC1 (stereo not shown) [Example 32, 3-(3-chlorophenylethynyl)-3a,4,5,6a-tetrahydropyrrolo[3,2-d]isoxazol-6-yl-(4-methylpiperazin-1-yl)methanone]
- Fold Increase 1 microM Glutam. [3]: 1.92 fold
- Fold Increase Glutam. [3]: 2.92 fold
- EC50 [3]: 1100 nM

SMILES: CC(C)CCOC(=O)N1CCC2C(C#Cc3cccc(Cl)c3)=NOC21 (stereo not shown) [Example 34, 3-methylbutyl-3-(3-chlorophenylethynyl)-3a,4,5,6a-tetrahydropyrrolo[3,2-d]isoxazole-6-carboxylate]
- EC50 [3]: 542 nM

SMILES: O=C(Nc1cccnc1)N1CCC2C(C#Cc3cccc(Cl)c3)=NOC21 (stereo not shown) [Example 36, 3-(3-chlorophenylethynyl)-N-(pyridin-3-yl)-3a,4,5,6a-tetrahydropyrrolo[3,2-d]isoxazole-6-carboxamide]
- Fold Increase Glutam. [3]: 0 fold
